Source: patent US20190002480A1, “Silane-Containing Heterocyclic Compounds and Methods of Use Thereof for the Treatment of Viral Diseases” (Merck Sharp & Dohme Corp., priority 2015, published 2019)
Read-outs that look alike come from different tables or passages of the source.

Legend:
[1] = test system: HCV replicon GT2b_31M; test: Cell-based HCV replicon assay, GT2b 31M; conditions: Hepatitis C virus, 72 h, read-out: GT2b_31M EC90
Experimental: (§1) To measure cell-based anti-HCV activity of compounds of the present invention, two complimentary assays were employed using various replicons. In the first assay (“Replicon Assay A”), replicon cells were seeded at 2000 cells/well in 384-well 384-well flat bottom tissue culture treated clear bottom plate (Corning 3707) in the presence of the test compound. Various concentrations of test compound, typically in 10 serial dilutions, were added to the assay mixture, with the starting concentration ranging from 333.3 nM to […]. The final concentration of DMSO was 0.5%. Fetal bovine serum was 5%, in the assay media. Cells were harvested on day 3 by removing media and washing the cells with a suitable wash buffer. The cells are lysed with the addition of 1× Qiagen lysis buffer (Cat #1062731). The replicon RNA level was measured using real time PCR (TaqMan® EZ RT-PCR, Applied Biosystems 403028) with the following primers and probes: […]
(§2) Cyclophilin RNA was used as endogenous control and was amplified in the same reaction as NS5B (multiplex PCR). The real-time RT-PCR reactions were run on ABI PRISM 7900HT Sequence Detection System using the following program: 50° C. for 2 minutes, 60° C. for 30 minutes, 95° C. for 5 minutes, 40 cycles of 94 C for 20 sec, 55 C for 1 minutes.
(§3) The amount of HCV replicon RNA per cell is quantified using a linear regression curve for a known nanogram (ng) amount of HCV replicon total RNA. This is established by plotting the Cycle Threshold values (Ct) from the Neo probe and primer set versus the log (ng) for each HCV replicon total RNA standard. The amount of HCV RNA for each replicon sample is calculated by taking the sample's Ct value, minus the line intercept, divided by the slope of the line. Similarly, the amount of Cyclophilin mRNA per cell is also quantified using a linear regression curve for a known nanogram (ng) amount of HCV replicon total RNA. Again, this is established by plotting the Cycle Threshold values (Ct) from the Cyclophilin probe and primer set versus the log (ng) for each HCV replicon total RNA standard.
(§4) In an alternate assay (“Replicon Assay B”), 1000 cells were seeded per well in a 384-well collagen coated black plate from Greiner bio-one (Cat #781946) in 5% FBS. Inhibitors of this invention were added at 24 h post-seeding, and the plates were incubated for 3 days. Cells were subsequently lysed with Qiagen lysis buffer (Cat #1062731) to extract the RNA. HCV replicon RNA level was measured by real-time PCR using the RNA-to-CT kit from Applied Biosystem (Cat #4392656) and genotype-specific primers and probes. The amplicon was located within NS5B. The sequence of the PCR primers are as follows: 5B.2F, ATGGACAGGCGCCCTGA (SEQ. ID NO. 1); 5B.2R, […] (SEQ. ID NO. 2); the probe sequence was FAM-labeled CACGCCATGCGCTGCGG (SEQ. ID NO. 3). To detect genotype 1A the primer 1A F, TGCGGAACCGGTGAGTACA and 1A R, […] were used; the probe sequence was FAM-[…].
(§5) The real-time RT-PCR reactions were run on ABI PRISM 7900HT or Viia7 Sequence Detection System using the following program: 48° C. for 30 minutes, 95 C for 10 minutes, 40 cycles of 95 C for 15 sec, 60 C for 1 minutes. The 50% effective concentration (EC50) was the drug concentration necessary to achieve an increase in the cycle threshold (CT) of 1 over the projected baseline CT. The EC90 was the drug concentration necessary to achieve an increase in CT of 3.2 over the projected baseline CT.

[2] = test system: HCV replicon GT1a_L31V; test: Cell-based HCV replicon assay, GT1a L31V; conditions: Hepatitis C virus, 72 h, read-out: GT1a_L31V EC90
Experimental: as §1, §2, §3, §4, §5

[3] = test system: HCV replicon GT6; test: Cell-based HCV replicon assay, GT6; conditions: Hepatitis C virus, GT6, 72 h; replicon RNA level by real-time PCR, 3 days
Experimental: as §1, §2, §3, §4, §5

[4] = test system: HCV replicon GT2a; test: Cell-based HCV replicon assay, GT2a; conditions: Hepatitis C virus, 72 h, read-out: GT2a EC90
Experimental: as §1, §2, §3, §4, §5

[5] = test system: HCV replicon GT3a_Y93H; test: Cell-based HCV replicon assay, GT3a Y93H; conditions: Hepatitis C virus, 72 h, read-out: GT3a_Y93H EC90
Experimental: as §1, §2, §3, §4, §5

[6] = test system: HCV replicon GT5; test: Cell-based HCV replicon assay, GT5; conditions: Hepatitis C virus, GT5, 72 h; replicon RNA level by real-time PCR, 3 days
Experimental: as §1, §2, §3, §4, §5

[7] = test system: HCV replicon GT1a_M28V; test: Cell-based HCV replicon assay, GT1a M28V; conditions: Hepatitis C virus, 72 h, read-out: GT1a_M28V EC90
Experimental: as §1
(§6) The amount of HCV replicon RNA per cell is quantified using a linear regression curve for a known nanogram (ng) amount of HCV replicon total RNA. […] The amount of HCV RNA for each replicon sample is calculated by taking the sample's Ct value, minus the line intercept, divided by the slope of the line. Similarly, the amount of Cyclophilin mRNA per cell is also quantified using a linear regression curve for a known nanogram (ng) amount of HCV replicon total RNA. […]

[8] = test system: HCV replicon Gt1a_WT; test: Cell-based HCV replicon assay, GT1a WT; conditions: Hepatitis C virus, 72 h; replicon RNA level by real-time PCR, 3 days
Experimental: as §1, §6

[9] = test system: HCV replicon GT4; test: Cell-based HCV replicon assay, GT4; conditions: Hepatitis C virus, GT4, 72 h; replicon RNA level by real-time PCR, 3 days
Experimental: as §1, §2, §3, §4, §5

[10] = test system: HCV replicon GT1a_Y93H; test: Cell-based HCV replicon assay, GT1a Y93H; conditions: Hepatitis C virus, 72 h, read-out: GT1a_Y93H EC90
Experimental: as §1, §2, §3, §4, §5

[11] = test system: HCV replicon GT1b_WT; test: Cell-based HCV replicon assay, GT1b WT; conditions: Hepatitis C virus, 72 h, read-out: GT1b_WT EC90
Experimental: as §1, §2, §3, §4, §5

[12] = test system: HCV replicon GT1a_Q30R; test: Cell-based HCV replicon assay, GT1a Q30R; conditions: Hepatitis C virus, 72 h, read-out: GT1a_Q30R EC90
Experimental: as §1, §2, §3, §4, §5

[13] = test system: HCV replicon GT3a_WT; test: Cell-based HCV replicon assay, GT3a WT; conditions: Hepatitis C virus, 72 h; replicon RNA level by real-time PCR, 3 days
Experimental: as §1, §2, §3, §4, §5

[14] = replicon RNA level by real-time PCR, 3 days

| Compound | EC90 [1] [nM] | EC90 [2] [nM] | EC90 [3] [nM] | EC90 [4, 14] [nM] | EC90 [5] [nM] | EC90 [6] [nM] | EC90 [7] [nM] | EC90 [8] [nM] | EC90 [9] [nM] | EC90 [10] [nM] | EC90 [11, 14] [nM] | EC90 [12] [nM] | EC90 [13] [nM] | EC90 [4] [nM] | EC90 [11] [nM] |
| --- | --- | --- | --- | --- | --- | --- | --- | --- | --- | --- | --- | --- | --- | --- | --- |
| COC(=O)N[C@H](C(=O)N1CCC[C@H]1c1ncc(-c2cc(F)c3c(c2)O[C@@H](c2ccc(C4CC4)s2)n2c-3cc3cc(-c4cnc([C@@H]5C[Si](C)(C)CN5C(=O)[C@H](N)c5ccccc5)[nH]4)ccc32)[nH]1)C(C)C [Compound 17] | 5.33 | 1.76 | 0.105 | 0.0582 | 765 | 0.0527 | 0.00192 | 0.00142 | 0.0124 | 6.18 | 0.00141 | 0.896 | 3.28 | – | – |
| COC(=O)N[C@H](C(=O)N1CCC[C@H]1c1ncc(-c2cc(F)c3c(c2)O[C@@H](c2ccc(C4CC4)s2)n2c-3cc3cc(-c4cnc([C@@H]5C[Si](C)(C)CN5C(=O)[C@@H](NC(=O)OC)C(C)C)[nH]4)ccc32)[nH]1)C(C)C [Compound 13] | 0.933 | 0.0756 | 0.0108 | – | 614 | 0.0061 | – | – | 0.0015 | 0.561 | – | 0.0328 | 0.469 | 0.00338 | 0.00118 |
| COC(=O)NC(C(=O)N1C[Si](C)(C)C[C@H]1c1ncc(-c2ccc3c(c2)cc2n3[C@H](c3ccc(C4CC4)s3)Oc3cc(-c4cnc([C@@H]5CCCN5C(=O)[C@@H](NC(=O)OC)C(C)C)[nH]4)cc(F)c3-2)[nH]1)C1CCOCC1 (stereo partly drawn) [Compound 14] | 0.038 | 0.0062 | 0.0842 | – | 175 | 0.013 | – | – | 0.00111 | 0.02 | – | 0.0027 | 0.018 | 0.0042 | 0.00131 |
| COC(=O)NC(C(=O)N1CCC[C@H]1c1ncc(-c2ccc3c(c2)cc2n3[C@H](c3cnc(C4CC4)s3)Oc3cc(-c4cnc([C@@H]5C[Si](C)(C)CN5C(=O)[C@@H](NC(=O)OC)C5CCCCC5)[nH]4)cc(F)c3-2)[nH]1)C(C)C (stereo partly drawn) [Compound 7] | 0.132 | 0.0045 | 0.0906 | – | 82 | 0.0246 | – | – | 0.00147 | 0.022 | – | 0.0039 | 0.051 | 0.00177 | 0.00244 |
| COC(=O)NC(C(=O)N1C[Si](C)(C)C[C@H]1c1ncc(-c2ccc3c(c2)cc2n3[C@H](c3ccc(C4CC4)s3)Oc3cc(-c4cnc([C@@H]5CCCN5C(=O)[C@@H](NC(=O)OC)C(C)C)[nH]4)cc(F)c3-2)[nH]1)C1CCC(F)(F)CC1 (stereo partly drawn) [Compound 16] | 2.83 | 0.0507 | 0.0252 | – | 3690 | 0.0173 | – | – | 0.00183 | 0.972 | – | 0.0285 | 1.68 | 0.00575 | 0.00184 |
| COC(=O)N[C@H](C(=O)N1CCC[C@H]1c1ncc(-c2cc(F)c3c(c2)O[C@@H](c2cnc(C4CC4)s2)n2c-3cc3cc(-c4cnc([C@@H]5C[Si](C)(C)CN5C(=O)[C@@H](NC(=O)OC)[C@@H]5CCOC(C)(C)C5)[nH]4)ccc32)[nH]1)C(C)C [Compound 3] | 0.431 | 0.0097 | 0.0076 | – | 370 | 0.0073 | – | – | 0.00112 | 0.079 | – | 0.008 | 0.285 | 0.00167 | 0.001 |
| COC(=O)N[C@H](C(=O)N1CCC[C@H]1c1ncc(-c2cc(F)c3c(c2)O[C@@H](c2ccc(C4CC4)s2)n2c-3cc3cc(-c4cnc([C@@H]5C[Si](C)(C)CN5C(=O)[C@@H](NC(=O)OC)[C@@H]5CCOC(C)(C)C5)[nH]4)ccc32)[nH]1)C(C)C [Compound 15] | 0.314 | 0.0075 | 0.0144 | – | 442 | 0.0065 | – | – | 0.00136 | 0.185 | – | 0.0047 | 0.173 | 0.0021 | 0.00102 |
| COC(=O)N[C@H](C(=O)N1CCC[C@H]1c1ncc(-c2ccc3c(c2)cc2n3[C@H](c3cnc(C4CC4)s3)Oc3cc(-c4cnc([C@@H]5C[Si](C)(C)CN5C(=O)[C@@H](NC(=O)OC)C(C)C)[nH]4)cc(F)c3-2)[nH]1)C(C)C [Compound 6] | 3.04 | 0.0599 | 0.0057 | – | 118 | 0.0069 | – | – | 0.00135 | 0.199 | – | 0.0729 | 1.32 | 0.00339 | 0.00116 |
